From PubChem BioAssay AID328 (DTP/NCI, 2004)
Several values for one entry are separate records, joined by “and”; a condition that tells them apart may be missing. Identical values can stand only once. Inconclusive results and toxic doses are left out. Starred links: 1 amine or outer side, 2 acyl side, 3 side chain; linkers in the order of their positions; H or OH if unused. Positions of bridges follow the written chain, without caps; N, C: chain ends. Non-standard residues stand in square brackets, D forms with d. Residues, ends and D or L forms follow the SMILES beside them. Chains are numbered I, II in the order given. *: point of attachment. Actinocin(1to9) = Cc1c2oc3c(C)ccc(C(=O)[*:2])c3nc-2c(C(=O)[*:1])c(N)c1=O; X2 = CC(=O)OC1CC(C)N([*:1])C1C(=O)[*:2]; X1 = CC1CC(=O)C(C(=O)[*:2])N1[*:1]; NMeV = CN[CH](C(=O)O)C(C)C; Cbz = O=C(OCc1ccccc1)*; NMeA = CN[CH](C)C(=O)O; Bn = c1ccc(C*)cc1; Sar = CNCC(=O)O

Tested on: BDF1 mice, P388 leukemia ip, median survival T/C
Assay: NCI In Vivo Anticancer Drug Screen. Data for tumor model P388 Leukemia (intraperitoneal) in B6D2F1 (BDF1) mice
Details: endpoint: median survival time, higher = longer survival
Outline: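 Mice carrying the transplantable tumour receive compound or vehicle. Survival is followed in each arm, and the treated measure is divided by the vehicle measure.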

[1] = dose: 100.0 mg/kg/injection, schedule: Q01DX009 (ip), vehicle: saline
[2] = dose: 100.0 mg/kg/injection, schedule: Q04DX003 (ip), vehicle: Klucel (hydroxypropylcellulose) (HPC)
[3] = dose: 100.0 mg/kg/injection, schedule: Q04DX003 (ip), vehicle: saline with Tween-80
[4] = dose: 200.0 mg/kg/injection, schedule: Q04DX003 (ip), vehicle: Klucel (hydroxypropylcellulose) (HPC)
[5] = dose: 200.0 mg/kg/injection, schedule: Q04DX003 (ip), vehicle: saline with Tween-80
[6] = dose: 50.0 mg/kg/injection, schedule: Q01DX009 (ip), vehicle: saline with Tween-80
[7] = dose: 100.0 mg/kg/injection, schedule: Q01DX009 (ip), vehicle: saline with Tween-80
[8] = dose: 100.0 mg/kg/injection, schedule: Q01DX001 (ip), vehicle: saline with Tween-80
[9] = dose: 200.0 mg/kg/injection, schedule: Q01DX001 (ip), vehicle: saline with Tween-80
[10] = dose: 400.0 mg/kg/injection, schedule: Q01DX001 (ip), vehicle: saline with Tween-80

CC(=O)/C(C1=NCCC1)=C(/C)O
T/C (dose: 25.0 mg/kg/injection, schedule: Q01DX009 (ip), vehicle: saline): 109 % of control
T/C (dose: 50.0 mg/kg/injection, schedule: Q01DX009 (ip), vehicle: saline): 100 % of control
T/C [1]: 100 % of control

COC(=O)NC1=C(N2CC2)C(=O)C(NC(=O)OC)=C(N2CC2)C1=O
T/C (dose: 0.37 mg/kg/injection, schedule: Q01DX009 (ip), vehicle: saline): 242 % of control and 222 % of control
T/C (dose: 0.75 mg/kg/injection, schedule: Q01DX009 (ip), vehicle: saline): 252 % of control and 270 % of control

COc1cc2oc(=O)c3c(c2cc1OC)CCN(CCN1CCCCC1)C3
T/C (dose: 50.0 mg/kg/injection, schedule: Q04DX002 (ip), vehicle: saline): 101 % of control
T/C (dose: 100.0 mg/kg/injection, schedule: Q04DX002 (ip), vehicle: saline): 100 % of control
T/C (dose: 200.0 mg/kg/injection, schedule: Q04DX002 (ip), vehicle: saline): 108 % of control

CC(=O)OC1CC(C)N2C(=O)C(C(C)C)NC(=O)C(NC(=O)c3ccc(C)c4oc5c(C)c(=O)c(N)c(C(=O)NC6C(=O)NC(C(C)C)C(=O)N7C(C)CC(=O)C7C(=O)N(C)CC(=O)N(C)C(C)C(=O)OC6C)c-5nc34)C(C)OC(=O)C(C(C)C)N(C)C(=O)CN(C)C(=O)C12 (stereo not drawn) (I: TV[X1][Sar][NMeA] / II: TV[X2][Sar][NMeV]; ester I:1-I:C, II:1-II:C; linker I:N-II:N via Actinocin(1to9); configuration not given here)
T/C (dose: 0.05 mg/kg/injection, schedule: Q01DX009 (ip), vehicle: saline + alcohol): 100 % of control
T/C (dose: 0.1 mg/kg/injection, schedule: Q01DX009 (ip), vehicle: saline + alcohol): 117 % of control
T/C (dose: 0.15 mg/kg/injection, schedule: Q04DX003 (ip), vehicle: saline + alcohol): 98 % of control
T/C (dose: 0.3 mg/kg/injection, schedule: Q04DX003 (ip), vehicle: saline + alcohol): 113 % of control
T/C (dose: 0.4 mg/kg/injection, schedule: Q01DX009 (ip), vehicle: saline + alcohol): 156 % of control
T/C (dose: 0.8 mg/kg/injection, schedule: Q01DX009 (ip), vehicle: saline + alcohol): 189 % of control
T/C (dose: 1.2 mg/kg/injection, schedule: Q04DX003 (ip), vehicle: saline + alcohol): 153 % of control
T/C (dose: 2.4 mg/kg/injection, schedule: Q04DX003 (ip), vehicle: saline + alcohol): 202 % of control
T/C (dose: 6.4 mg/kg/injection, schedule: Q01DX001 (ip), vehicle: saline + alcohol): 159 % of control

CC(C)=CCNc1ncnc2c1ncn2C1OC(CO)C(O)C1O (stereo not drawn)
T/C (dose: 50.0 mg/kg/injection, schedule: Q04DX003 (ip), vehicle: Klucel (hydroxypropylcellulose) (HPC)): 95 % of control
T/C [2]: 100 % of control
T/C [3]: 104 % of control
T/C [4]: 95 % of control
T/C [5]: 100 % of control

CC1(C)CCC(C)(C)c2c1ccc(O)c2Sc1c(O)ccc2c1C(C)(C)CCC2(C)C
T/C [6]: 97 % of control
T/C [7]: 97 % of control and 119 % of control
T/C (dose: 200.0 mg/kg/injection, schedule: Q01DX009 (ip), vehicle: saline with Tween-80): 102 % of control and 104 % of control
T/C (dose: 400.0 mg/kg/injection, schedule: Q01DX009 (ip), vehicle: saline with Tween-80): 93 % of control

O=c1cc[nH]c2cc(C(F)(F)F)ccc12
T/C (dose: 100.0 mg/kg/injection, schedule: Q04DX003 (ip), vehicle: saline sonified): 100 % of control
T/C (dose: 200.0 mg/kg/injection, schedule: Q04DX003 (ip), vehicle: saline sonified): 95 % of control

O=C1c2ccccc2S(=O)(=O)N1CCCBr
T/C (dose: 12.5 mg/kg/injection, schedule: Q01DX009 (ip), vehicle: Klucel (hydroxypropylcellulose) (HPC)): 95 % of control
T/C (dose: 25.0 mg/kg/injection, schedule: Q01DX009 (ip), vehicle: Klucel (hydroxypropylcellulose) (HPC)): 110 % of control
T/C (dose: 50.0 mg/kg/injection, schedule: Q01DX009 (ip), vehicle: Klucel (hydroxypropylcellulose) (HPC)): 105 % of control
T/C [2]: 95 % of control
T/C [4]: 95 % of control
T/C (dose: 400.0 mg/kg/injection, schedule: Q04DX003 (ip), vehicle: Klucel (hydroxypropylcellulose) (HPC)): 95 % of control

O=C(O)CC[S-].[Ag+]
T/C (dose: 25.0 mg/kg/injection, schedule: Q01DX009 (ip), vehicle: saline with Tween-80): 90 % of control
T/C [6]: 90 % of control
T/C [7]: 86 % of control

CC(C)(O)c1cccc(C(=O)O)c1Sc1ccccc1
T/C [8]: 100 % of control
T/C [9]: 95 % of control
T/C [10]: 101 % of control

O=C(O)CCCOc1ccc(Cl)cc1Cl
T/C [1]: 100 % of control
T/C (dose: 200.0 mg/kg/injection, schedule: Q01DX009 (ip), vehicle: saline): 104 % of control
T/C (dose: 400.0 mg/kg/injection, schedule: Q01DX009 (ip), vehicle: saline): 95 % of control

O=C(O)C1CCC2(CCCCC2)CC1
T/C (dose: 6.25 mg/kg/injection, schedule: Q01DX009 (ip), vehicle: water): 106 % of control
T/C (dose: 12.5 mg/kg/injection, schedule: Q01DX009 (ip), vehicle: water): 100 % of control
T/C (dose: 12.5 mg/kg/injection, schedule: Q04DX003 (ip), vehicle: water): 104 % of control
T/C (dose: 25.0 mg/kg/injection, schedule: Q01DX009 (ip), vehicle: water): 113 % of control and 117 % of control
T/C (dose: 25.0 mg/kg/injection, schedule: Q04DX003 (ip), vehicle: water): 94 % of control and 106 % of control and 116 % of control
T/C (dose: 50.0 mg/kg/injection, schedule: Q01DX009 (ip), vehicle: water): 99 % of control and 106 % of control
T/C (dose: 100.0 mg/kg/injection, schedule: Q01DX009 (ip), vehicle: water): 94 % of control and 100 % of control
T/C (dose: 200.0 mg/kg/injection, schedule: Q01DX009 (ip), vehicle: water): 88 % of control

O=C(NC(CSCc1ccccc1)C(=O)NC(Cc1ccc(O)cc1)C(=O)O)OCc1ccccc1 (stereo not drawn) (Cbz-Cys(Bn)-Tyr-OH; configuration not given here)
T/C (dose: 100.0 mg/kg/injection, schedule: Q01DX009 (ip), vehicle: gum acacia): 95 % of control
T/C (dose: 100.0 mg/kg/injection, schedule: Q04DX003 (ip), vehicle: gum acacia): 88 % of control
T/C (dose: 200.0 mg/kg/injection, schedule: Q01DX009 (ip), vehicle: gum acacia): 95 % of control
T/C (dose: 200.0 mg/kg/injection, schedule: Q04DX003 (ip), vehicle: gum acacia): 107 % of control
T/C (dose: 400.0 mg/kg/injection, schedule: Q01DX009 (ip), vehicle: gum acacia): 100 % of control
T/C (dose: 400.0 mg/kg/injection, schedule: Q04DX003 (ip), vehicle: gum acacia): 92 % of control

Cc1cc2c([nH]c1=O)C(=O)c1c(O)cccc1C2=O
T/C (dose: 2.5 mg/kg/injection, schedule: Q01DX009 (ip), vehicle: Klucel (hydroxypropylcellulose) (HPC)): 103 % of control
T/C (dose: 5.0 mg/kg/injection, schedule: Q01DX009 (ip), vehicle: Klucel (hydroxypropylcellulose) (HPC)): 108 % of control
T/C (dose: 10.0 mg/kg/injection, schedule: Q01DX009 (ip), vehicle: Klucel (hydroxypropylcellulose) (HPC)): 103 % of control
T/C (dose: 20.0 mg/kg/injection, schedule: Q01DX009 (ip), vehicle: Klucel (hydroxypropylcellulose) (HPC)): 104 % of control
T/C (dose: 40.0 mg/kg/injection, schedule: Q01DX009 (ip), vehicle: Klucel (hydroxypropylcellulose) (HPC)): 95 % of control
T/C (dose: 80.0 mg/kg/injection, schedule: Q01DX009 (ip), vehicle: Klucel (hydroxypropylcellulose) (HPC)): 115 % of control

O=NN1CCNC1=O
T/C (dose: 7.2 mg/kg/injection, schedule: Q04DX003 (ip), vehicle: saline): 172 % of control
T/C (dose: 10.0 mg/kg/injection, schedule: Q04DX003 (ip), vehicle: saline): 113 % of control
T/C (dose: 16.5 mg/kg/injection, schedule: Q04DX003 (ip), vehicle: saline): 209 % of control
T/C (dose: 25.0 mg/kg/injection, schedule: Q04DX003 (ip), vehicle: saline): 86 % of control
T/C (dose: 37.5 mg/kg/injection, schedule: Q04DX003 (ip), vehicle: saline): 90 % of control

ON=C(Cc1ccccc1)Cc1ccccc1
T/C [3]: 100 % of control
T/C [5]: 109 % of control
T/C (dose: 400.0 mg/kg/injection, schedule: Q04DX003 (ip), vehicle: saline with Tween-80): 109 % of control

O=C(NCC(S)c1ccc(Cl)cc1)C(F)(F)F (stereo not drawn)
T/C (dose: 6.25 mg/kg/injection, schedule: Q04DX003 (ip), vehicle: saline with Tween-80): 100 % of control
T/C (dose: 12.5 mg/kg/injection, schedule: Q04DX003 (ip), vehicle: saline with Tween-80): 100 % of control
T/C (dose: 25.0 mg/kg/injection, schedule: Q04DX003 (ip), vehicle: saline with Tween-80): 118 % of control

CSc1nc2n(C)cc(C)cc-2c(=O)n1
T/C (dose: 100.0 mg/kg/injection, schedule: Q01DX001 (ip), vehicle: suspension in saline): 90 % of control

Cc1ccc(C(O)c2c(C)cc(C)cc2C)c(C)c1 (stereo not drawn)
T/C [8]: 100 % of control
T/C [9]: 100 % of control
T/C [10]: 100 % of control
